Measurements from publication PMC12013494, “Covalent inhibition of the SARS-CoV-2 NiRAN domain via an active-site cysteine” (The Journal of Biological Chemistry, 2025).

Legend:
NiRAN = details: cited from earlier work
SARS-CoV-2-Wu-1-zsGreen = test: microbe, parasite or virus in culture; assay type: cell-based; details: for EC50: Severe acute respiratory syndrome coronavirus 2, read-out: EC50 for viral replication (infectivity)
[1] = biological target: T1, SARS-CoV-2 nsp12 NiRAN domain (Severe acute respiratory syndrome coronavirus 2, UniProt P0DTD1); test: biochemical; details: for IC50 for NiRAN-dependent AMPylation of nsp9 / IC50: n = 4; for IC50: read-out: IC50 for NiRAN-dependent AMPylation of nsp9
SARS-CoV-2 main protease = details: cited from earlier work
SARS-CoV-2 = details: cited from earlier work
nsp12 = nsp12 (Severe acute respiratory syndrome coronavirus 2, UniProt P0DTD1); assay type: binding, SARS-CoV-2
[2] = biological target: T1, SARS-CoV-2 nsp12 NiRAN domain; assay type: biochemical
SARS-CoV-2 nsp12 = SARS-CoV-2 nsp12 (Severe acute respiratory syndrome coronavirus 2, UniProt P0DTD1); assay type: binding
Flag-nsp12 [3] = biological target: T2, Flag-nsp12 (Severe acute respiratory syndrome coronavirus 2, UniProt P0DTD1); assay type: cell-based, SARS-CoV-2
human SelO = human SelO (Homo sapiens, UniProt Q9BVL4, U667C); assay type: binding
SARS-CoV-1 nsp12 = SARS-CoV-1 nsp12 (Severe acute respiratory syndrome coronavirus, UniProt P0C6X7); assay type: binding
nsp12 RdRp = nsp12 RdRp (Severe acute respiratory syndrome coronavirus 2, UniProt P0DTD1); assay type: biochemical, SARS-CoV-2
Flag-nsp12 [4] = biological target: T2, Flag-nsp12; assay type: cell-based, SARS-CoV-2; remark: listed apart in the source
MERS nsp12 = MERS nsp12 (Middle East respiratory syndrome-related coronavirus, UniProt K9N7C7); assay type: binding, MERS-CoV
Sequence of MERS nsp12 (K9N7C7 4378-5310 limits assumed): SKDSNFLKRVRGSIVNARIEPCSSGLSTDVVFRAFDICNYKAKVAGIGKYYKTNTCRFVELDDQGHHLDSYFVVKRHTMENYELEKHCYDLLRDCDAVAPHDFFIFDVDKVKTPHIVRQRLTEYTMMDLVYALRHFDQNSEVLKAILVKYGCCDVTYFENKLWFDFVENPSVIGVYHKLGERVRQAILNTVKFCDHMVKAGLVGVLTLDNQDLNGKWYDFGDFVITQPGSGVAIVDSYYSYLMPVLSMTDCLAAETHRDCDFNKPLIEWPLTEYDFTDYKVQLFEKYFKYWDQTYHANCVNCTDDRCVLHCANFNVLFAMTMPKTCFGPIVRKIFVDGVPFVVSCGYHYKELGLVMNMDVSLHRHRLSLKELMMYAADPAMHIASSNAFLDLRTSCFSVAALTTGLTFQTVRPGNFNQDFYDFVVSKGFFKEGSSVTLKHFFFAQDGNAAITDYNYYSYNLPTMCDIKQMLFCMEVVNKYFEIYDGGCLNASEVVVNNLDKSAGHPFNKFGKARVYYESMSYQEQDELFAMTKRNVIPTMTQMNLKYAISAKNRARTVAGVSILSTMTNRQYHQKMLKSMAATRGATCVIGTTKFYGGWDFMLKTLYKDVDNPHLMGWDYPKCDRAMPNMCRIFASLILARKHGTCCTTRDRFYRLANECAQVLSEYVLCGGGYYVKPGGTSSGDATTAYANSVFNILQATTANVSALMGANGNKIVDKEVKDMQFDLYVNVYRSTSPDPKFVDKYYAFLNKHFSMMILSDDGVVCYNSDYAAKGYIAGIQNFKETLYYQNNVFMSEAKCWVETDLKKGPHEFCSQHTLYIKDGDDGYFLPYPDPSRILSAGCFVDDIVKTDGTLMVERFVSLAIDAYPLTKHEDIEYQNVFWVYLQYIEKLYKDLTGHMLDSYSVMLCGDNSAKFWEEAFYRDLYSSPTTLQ

Sequence of human SelO (Q9BVL4 with tags, fused parts or gaps U667C limits assumed): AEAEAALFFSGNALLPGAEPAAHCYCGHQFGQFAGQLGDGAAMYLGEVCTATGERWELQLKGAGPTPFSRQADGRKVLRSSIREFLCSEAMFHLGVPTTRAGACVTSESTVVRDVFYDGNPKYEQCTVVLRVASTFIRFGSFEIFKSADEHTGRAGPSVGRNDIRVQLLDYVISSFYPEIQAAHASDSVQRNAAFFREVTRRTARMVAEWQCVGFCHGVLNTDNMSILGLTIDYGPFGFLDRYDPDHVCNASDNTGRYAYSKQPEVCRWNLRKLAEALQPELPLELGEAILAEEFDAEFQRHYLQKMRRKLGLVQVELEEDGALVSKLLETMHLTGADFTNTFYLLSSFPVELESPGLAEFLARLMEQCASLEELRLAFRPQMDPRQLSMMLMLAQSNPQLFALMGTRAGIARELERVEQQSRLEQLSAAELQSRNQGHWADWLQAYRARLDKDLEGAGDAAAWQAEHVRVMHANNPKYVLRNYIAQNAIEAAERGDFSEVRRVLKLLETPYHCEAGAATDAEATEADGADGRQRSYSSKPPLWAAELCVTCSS

Structure (SMILES): CCC(CC)COC(=O)[C@H](C)N[P@](=O)(OC[C@H]1O[C@@](C#N)(c2ccc3c(N)ncnn23)[C@H](O)[C@@H]1O)Oc1ccccc1 [remdesivir, reference compound]
- inhibition of NiRAN activity (NiRAN): inhibit NiRAN activity
- EC50 (SARS-CoV-2-Wu-1-zsGreen): 0.64 µM

Structure (SMILES): C#CCNc1cc(CCl)nc2c(C(=O)OC)cnn12 [SW395929-1, Methyl 5-(chloromethyl)-7-(prop-2-yn-1-ylamino)pyrazolo[1,5-a]pyrimidine-3-carboxylate]
- IC50 for NiRAN-dependent AMPylation of nsp9 [1]: No activity up to 500 μM

Structure (SMILES): C#CCNC(=O)c1cnn2c(O)cc(CCl)nc12 [SW396062-1, 5-(Chloromethyl)-7-hydroxy-N-(prop-2-yn-1-yl)pyrazolo[1,5-a]pyrimidine-3-carboxamide]
- IC50 [1]: > 500 µM

Structure (SMILES): C#Cc1cc(O)n2ncc(C(=O)OC)c2n1 [SW461447-1, Methyl 5-ethynyl-7-hydroxypyrazolo[1,5-a]pyrimidine-3-carboxylate]
- IC50 for NiRAN-dependent AMPylation of nsp9 [1]: No activity up to 500 μM

Structure (SMILES): O=C(O)c1cnn2c(O)cc(CCl)nc12 [SW396061-1, 5-(Chloromethyl)-7-hydroxypyrazolo[1,5-a]pyrimidine-3-carboxylic acid]
- IC50 for NiRAN-dependent AMPylation of nsp9 [1]: No activity up to 500 μM

Structure (SMILES): CC(C)(C)[C@H](NC(=O)C(F)(F)F)C(=O)N1C[C@H]2[C@@H]([C@H]1C(=O)N[C@H](C#N)C[C@@H]1CCNC1=O)C2(C)C [nirmatrelvir]
- Ki (SARS-CoV-2 main protease): 0.003 µM
- EC50 (SARS-CoV-2): 0.075 µM

Structure (SMILES): COC(=O)c1cnn2c(O)cc(CO)nc12 [SW396063-1, Methyl 7-hydroxy-5-(hydroxymethyl)pyrazolo[1,5-a]pyrimidine-3-carboxylate]
- IC50 [1]: 371 µM

Structure (SMILES): O=c1cc(CCl)nc2ccc(Cl)cn12 [NCI-1]
- effect on thermal stability of nsp12 (nsp12): increase in the thermal stability of nsp12
- inhibition of NiRAN-dependent RNAylation of nsp9 [2]: inhibition of NiRAN-dependent RNAylation of nsp9
- covalent binding to nsp12 (intact mass shift) (SARS-CoV-2 nsp12): covalent addition
- IC50 [1]: 7.32 µM

Structure (SMILES): C#CCOC(=O)c1cnn2c(O)cc(CCl)nc12 [NCI-3, Prop-2-yn-1-yl 5-(chloromethyl)-7-hydroxypyrazolo[1,5-a]pyrimidine-3-carboxylate]
- binding to nsp12 in cells (biotinylation after click reaction) (Flag-nsp12 [3]): major biotinylated species corresponding to nsp12
- IC50 [1]: 10.4 µM

Structure (SMILES): COC(=O)c1cnn2c(O)cc(CCl)nc12 [NCI-2, methyl 5-(chloromethyl)-7-hydroxypyrazolo[1,5-a]pyrimidine-3-carboxylate]
- effect on thermal stability of nsp12 (nsp12): increase in the thermal stability of nsp12
- binding to SelO (human SelO): fails to bind
- inhibition of NiRAN-dependent RNAylation of nsp9 [2]: inhibition of NiRAN-dependent RNAylation of nsp9
- covalent binding to SARS-CoV-1 nsp12 (SARS-CoV-1 nsp12): covalently binds
- effect on nsp12 polymerase (RdRp) activity (nsp12 RdRp): did not impact nsp12 polymerase activity
- RNAylation activity of Flag-nsp12 from treated cells (Flag-nsp12 [4]): marked reduction in its ability to RNAylate nsp9
- concentration at which inhibition of viral replication was observed (SARS-CoV-2-Wu-1-zsGreen): 200 µM
- EC50 (SARS-CoV-2-Wu-1-zsGreen): > 200 µM
- covalent binding to nsp12 (intact mass shift) (SARS-CoV-2 nsp12): covalent addition
- binding to MERS NiRAN (nsp12) (MERS nsp12): fails to bind
- Ki [1]: 16.3 µM
- IC50 [1]: 4.36 µM
- kinact ([1]; read-out: rate of inactivation constant kinact): 0.0024 s⁻¹
- kinact/KI ([1]; read-out: second order rate constant kinact/Ki): 147 M⁻¹ s⁻¹

Structure (SMILES): COC(=O)c1cnn2c(O)cc(/C=C/C(N)=O)nc12 [SW396067-1, Methyl (E)-5-(3-amino-3-oxoprop-1-en-1-yl)-7-hydroxypyrazolo[1,5-a]pyrimidine-3-carboxylate]
- IC50 for NiRAN-dependent AMPylation of nsp9 [1]: No activity up to 500 μM

Structure (SMILES): COC(=O)c1cnn2c(O)cc(CCO)nc12 [SW398310-1, Methyl 7-hydroxy-5-(2-hydroxyethyl)pyrazolo[1,5-a]pyrimidine-3-carboxylate]
- IC50 for NiRAN-dependent AMPylation of nsp9 [1]: No activity up to 500 μM

Structure (SMILES): COC(=O)c1cnn2c(O)cc(/C=C/C(=O)O)nc12 [SW396066-1, (E)-3-(7-hydroxy-3-(methoxycarbonyl)pyrazolo[1,5-a]pyrimidin-5-yl)acrylic acid]
- IC50 for NiRAN-dependent AMPylation of nsp9 [1]: No activity up to 500 μM

Structure (SMILES): COC(=O)c1cnn2c(OC)cc(CCl)nc12 [SW396271-1, Methyl 5-(chloromethyl)-7-methoxypyrazolo[1,5-a]pyrimidine-3-carboxylate]
- IC50 [1]: > 500 µM

Structure (SMILES): COC(=O)c1cnn2c(O)cc(C(C)Cl)nc12 (stereo not shown) [SW396272-1, Methyl 5-(1-chloroethyl)-7-hydroxypyrazolo[1,5-a]pyrimidine-3-carboxylate]
- IC50 for NiRAN-dependent AMPylation of nsp9 [1]: No activity up to 500 μM

Structure (SMILES): COC(=O)c1cnn2c(O)cc(CCCl)nc12 [SW398309-1, Methyl 5-(2-chloroethyl)-7-hydroxypyrazolo[1,5-a]pyrimidine-3-carboxylate]
- IC50 for NiRAN-dependent AMPylation of nsp9 [1]: No activity up to 500 μM

Structure (SMILES): COC(=O)c1cnn2c(O)cc(Cl)nc12 [SW461448-1]
- IC50 for NiRAN-dependent AMPylation of nsp9 [1]: No activity up to 500 μM

Structure (SMILES): COC(=O)c1cnn2c(O)cc(C#N)nc12 [SW396744-1, Methyl 5-cyano-7-hydroxypyrazolo[1,5-a]pyrimidine-3-carboxylate]
- IC50 for NiRAN-dependent AMPylation of nsp9 [1]: No activity up to 500 μM

Structure (SMILES): COC(=O)c1cnn2c(O)cc(C=O)nc12 [SW396064-1, Methyl 5-formyl-7-hydroxypyrazolo[1,5-a]pyrimidine-3-carboxylate]
- IC50 for NiRAN-dependent AMPylation of nsp9 [1]: No activity up to 500 μM

Structure (SMILES): COC(=O)c1cn(C)n2c(=O)cc(CCl)nc12 [SW396262-1, Methyl 5-(chloromethyl)-1-methyl-7-oxo-1,7-dihydropyrazolo[1,5-a]pyrimidine-3-carboxylate]
- IC50 [1]: > 500 µM

Structure (SMILES): COC(=O)c1cnn2c(O)cc(/C=C/C(=O)OC(C)(C)C)nc12 [SW396065-1, Methyl (E)-5-(3-(tert-butoxy)-3-oxoprop-1-en-1-yl)-7-hydroxypyrazolo[1,5-a]pyrimidine-3-carboxylate]
- IC50 for NiRAN-dependent AMPylation of nsp9 [1]: No activity up to 500 μM
